Reference: patent US20260026529A1, “MATERIALS AND METHODS FOR THE MANUFACTURE OF AN ANIMAL FEED” (In the Bowl Animal Health, Inc., priority 2023, published 2026)
Where a name gives a salt, the structure may show the parent alone. Marks after values point to notes of the source that are not given here.

What was measured:
[1] = Solubility of active ingredients in liquid carriers, transmissivity measurement with a crystallizer multi-reactor
From the text: To determine the solubility of various active ingredients that could be incorporated into pet food, each active ingredient may be evaluated in a temperature dependent manner using a crystallizer multi-reactor with transmissivity measurements.
Carrier of interest may be prepared as needed and specific active ingredients may be added to the solvents to form mixtures of the solvent and active. […] If mixing and/or heating fails to provide visual evidence that an active ingredient dissolves in the test solvent carrier no further solubility testing of the active ingredient with the test carrier can be conducted.
For active ingredients that appear to at least partially dissolve in a given carrier, the mixtures can be analyzed by transmissivity measurement using a crystallizer multi-reactor. Prior to the transmissivity measurement using a crystallizer multi-reactor with transmissivity capability, carriers may be prepared, as needed, and subsequently tested using a heating cycle over a range of temperatures. The transmissivity data can be recorded over the temperature ranges and used as a blank or reference in subsequent transmissivity measurements.
Typically, initial samples including the active ingredient of interest and the test carrier are not readily soluble at room temperature and may register low percent transmissivity along with visible observations of insolubilized material. When resulting admixtures are heated at a specific heating rate, the percent transmissivity increases as the active ingredient is solubilized. When the solids are completely dissolved, the transmissivity is measured as 100%. When the resulting heated admixture is subsequently cooled, solids may precipitate at a given temperature and cooling rate, which results in a decrease in percent transmissivity. The temperature and time at which precipitation occurs with a specific admixture provides additional information regarding solubility and the combination of parameters needed for selection to prepare feed with the active ingredient of interest.
Carriers include, refined chicken fat, refined chicken fat including lecithin, refined chicken fat including Tween80, refined chicken fat including triacetin, and triacetin may be used as carrier systems over a range of temperatures, ramp rates, stirring rates, and cooling cycles to evaluate stability.
Admixture experiments may be performed with active ingredients including, e.g., mivorilaner, sarolaner, lotilaner, fluralaner, afoxolaner, spinosad, pyrantel, praziquantel, fenbendazole, diethylcarbamazine, moxidectin, gabapentin and metformin in combination with different test carriers using the methodology described herein. “Apparent solubility” is a term used herein to denote that the admixture may be a true solution, i.e., an admixture in which the active ingredient completely dissolves into the carrier liquid. However, the term “apparent solubility” also can include suspensions and emulsions, for example, which resemble a true solution but are not.

[2] = Solubility of mivorilaner in carriers under isothermal conditions; type: physicochemical
Experimental: The solubility of mivorilaner in a number of carriers was also measured under isothermal conditions.

SMILES | Measured Concentration ([1]; carrier CF, Up to 60 ° C.) [mg/g] | Time to Achieve Apparent Solubility ([1]; carrier CF, Up to 60 ° C.) | Measured Concentration ([1]; carrier Triacetin, 20-22 ° C.) [mg/g] | Solubility in a combination of chicken fat and lecithin ([2]; chicken fat and lecithin) | Solubility observation, chicken fat only ([2]; chicken fat only, all experiments) | Time to Achieve Apparent Solubility ([1]; carrier Chicken Fat + Tween 80, 2.0 mg/g, 40 ° C.) | Effect of the presence of lecithin on solubility ([1]; chicken fat vs chicken fat including 4% (w/w) lecithin, 2-16 mg/g, 0.1° C./minute, 39° C. to 60° C., FIG. 5)
NCC1(CC(=O)O)CCCCC1 [Gabapentin] | 0 | Insoluble | <1 |  |  |  | 
CN(C)C(=N)N=C(N)N [Metformin-HCI, Metformin HCl] | 0 |  | <1 |  |  |  | 
O=C(CNC(=O)c1sc(C2=NO[C@@](c3cc(Cl)c(F)c(Cl)c3)(C(F)(F)F)C2)c2c1CCC2)NCC(F)F [Mivorilaner] |  |  |  | soluble over a wide range of concentrations and temperatures | visible detection of agglomerates was noted in all experiments | 1.5** hours | increased mivorilaner solubility
